Paper PMC8194371 (Journal of medicinal chemistry, 2021)
Converted amounts (≈) assume the structure as drawn. “And” between values parts separate entries of the source, which are not always exact repeats. Equal values may be shown once. Read-outs that look alike come from different tables or passages of the source.

Assays:
[1] = tested on: Mtb strain CDC1551 dop::MycoMarT7 expressing pupGGE; assay: Accumulation of pupylated proteins; format: cell-based, Mycobacterium tuberculosis
[2] = tested on: Mtb strain MHD1441 (H37Rv WT + pSCK1); format: cell-based, Mycobacterium tuberculosis; details: 0.1-33 μM, day 4
HepG2 cells = assay: Viability of HepG2 cells; details: at 30 μM
β5i of the human i-20S = β5i of the human i-20S (Homo sapiens, UniProt P28062); format: biochemical
β5c of the human c-20S = β5c of the human c-20S (Homo sapiens, UniProt P28074); assay: human constitutive proteasome β5c inhibition, suc-LLVY-AMC; format: biochemical; details: for SIapp IC50–β5c / IC50–Mtb20S: apparent selectivity index, rounded to three or fewer significant figures
Mtb20SOG = Mtb20SOG (Mycobacterium tuberculosis, UniProt P9WHT9); assay: Mtb20SOG proteasome inhibition, suc-LLVY-AMC hydrolysis; format: biochemical; details: Mtb20S IC50, text values
Chain of Mtb20SOG (P9WHT9 58-291): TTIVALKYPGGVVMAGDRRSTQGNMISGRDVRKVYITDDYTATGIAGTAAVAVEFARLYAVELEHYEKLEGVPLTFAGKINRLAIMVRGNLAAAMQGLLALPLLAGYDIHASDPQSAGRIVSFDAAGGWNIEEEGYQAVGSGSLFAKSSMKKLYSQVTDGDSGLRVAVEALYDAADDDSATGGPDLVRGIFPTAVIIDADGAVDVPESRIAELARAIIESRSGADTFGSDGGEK

Kinetic solubility = format: physicochemical; details: PBS buffer

Row | SMILES | SIapp IC50–β5i / IC50–Mtb20S (β5i of the human i-20S) | SIapp IC50–β5c / IC50–Mtb20S (β5c of the human c-20S) | further results
1 | CC(C)C[C@H](NC(=O)[C@H](CCc1ccccc1)NC(=O)CN1CCOCC1)C(=O)N[C@@H](Cc1ccccc1)C(=O)N[C@@H](CC(C)C)C(=O)[C@@]1(C)CO1 [Carfilzomib, reference compound] |  |  | accumulation of pupylated proteins [1]: led to accumulation of pupylated proteins
2 | O=C1CCc2cccc(c2)Oc2ccc(cc2)C[C@@H](C(=O)NCc2ccccc2F)NC(=O)[C@H](CC(=O)N2CCC[C@@H]2c2ccccc2)N1 [Macrocycle 6] | >13,600 | >13,600 | Pup-GFP accumulation (RFU normalized by OD) [2]: dose-dependent increase of RFU; cytotoxicity toward HepG2 (HepG2 cells): no appreciable cytotoxicity; accumulation of pupylated proteins ([1]; macrocycle 6 at 1, 3, or 10 μM for 48 h, CFZ at 50 μM): dose-dependently promoted the accumulation of pupylated proteins; selectivity for Mtb20S over human i-20S (β5i of the human i-20S): > 13,600 fold and > 10,000 fold; selectivity for Mtb20S over human c-20S (β5c of the human c-20S): > 13,600 fold and > 10,000 fold
3 | O=C1CCc2cccc(c2)Oc2ccc(cc2)C[C@@H](C(=O)NCc2ccccc2F)NC(=O)[C@H](CC(=O)N2CCCC2)N1 [Macrocycle 5] |  | >500 | 
4 | O=C1CCc2cccc(c2)OCCCC[C@@H](C(=O)NCc2ccccc2F)NC(=O)[C@H](CC(=O)N2CCC[C@@H]2C2CC2)N1 [Macrocycle 11] |  |  | IC50 (Mtb20SOG): 6.5 nM
5 | O=C1CCCCCCCCOC[C@@H](C(=O)NCc2cccc3ccccc23)NC(=O)[C@H](CC(=O)N2CCCC2)N1 [Macrocycle 4] | >984 | >984 | 
6 | O=C1CCc2cccc(c2)OCCCC[C@@H](C(=O)NCc2ccccc2F)NC(=O)[C@H](CC(=O)N2CCC[C@@H]2c2ccccc2)N1 [Macrocycle 10] | >14,400 | >14,400 | Pup-GFP accumulation (RFU normalized by OD) [2]: dose-dependent increase of RFU; cytotoxicity toward HepG2 (HepG2 cells): no appreciable cytotoxicity; selectivity for Mtb20S over human i-20S (β5i of the human i-20S): > 14,400 fold; selectivity for Mtb20S over human c-20S (β5c of the human c-20S): > 14,400 fold
7 | O=C1CCCCCCCCCC[C@@H](C(=O)NCc2cccc3ccccc23)NC(=O)[C@H](CC(=O)N2CCCC2)N1 [Macrocycle 2] | >674 | >674 | 
8 | O=C1CCCCCCCCOC[C@@H](C(=O)NCc2ccccc2F)NC(=O)[C@H](CC(=O)N2CCC[C@@H]2c2ccccc2)N1 [Macrocycle 9] | >14,000 | >14,000 | solubility at 24 h (Kinetic solubility; pH 6.8): 1.4 µg/mL (≈ 2.35 µM); solubility at 24 h (Kinetic solubility; pH 6.8, aqueous buffer, kinetic from dmso stock): < 1.4 µg/mL
9 | O=C1CCCCCCCCC[C@@H](C(=O)NCc2cccc3ccccc23)NC(=O)[C@H](CC(=O)N2CCCC2)N1 [Macrocycle 3] | >141 | >141 | 
